Our source for the IC50 values is patent US20250361230A1, “LATS Inhibitors and Uses Thereof” (The USA, as Represented by the Secretary, Dept. of Heath …, priority 2022, published 2025).

Molecules are shown by their SMILES.

What all share (assay type): biochemical
One assay deals with T1, LATS2 (Homo sapiens, UniProt Q9NRM7).
T1 sequence (Q9NRM7 1-1088): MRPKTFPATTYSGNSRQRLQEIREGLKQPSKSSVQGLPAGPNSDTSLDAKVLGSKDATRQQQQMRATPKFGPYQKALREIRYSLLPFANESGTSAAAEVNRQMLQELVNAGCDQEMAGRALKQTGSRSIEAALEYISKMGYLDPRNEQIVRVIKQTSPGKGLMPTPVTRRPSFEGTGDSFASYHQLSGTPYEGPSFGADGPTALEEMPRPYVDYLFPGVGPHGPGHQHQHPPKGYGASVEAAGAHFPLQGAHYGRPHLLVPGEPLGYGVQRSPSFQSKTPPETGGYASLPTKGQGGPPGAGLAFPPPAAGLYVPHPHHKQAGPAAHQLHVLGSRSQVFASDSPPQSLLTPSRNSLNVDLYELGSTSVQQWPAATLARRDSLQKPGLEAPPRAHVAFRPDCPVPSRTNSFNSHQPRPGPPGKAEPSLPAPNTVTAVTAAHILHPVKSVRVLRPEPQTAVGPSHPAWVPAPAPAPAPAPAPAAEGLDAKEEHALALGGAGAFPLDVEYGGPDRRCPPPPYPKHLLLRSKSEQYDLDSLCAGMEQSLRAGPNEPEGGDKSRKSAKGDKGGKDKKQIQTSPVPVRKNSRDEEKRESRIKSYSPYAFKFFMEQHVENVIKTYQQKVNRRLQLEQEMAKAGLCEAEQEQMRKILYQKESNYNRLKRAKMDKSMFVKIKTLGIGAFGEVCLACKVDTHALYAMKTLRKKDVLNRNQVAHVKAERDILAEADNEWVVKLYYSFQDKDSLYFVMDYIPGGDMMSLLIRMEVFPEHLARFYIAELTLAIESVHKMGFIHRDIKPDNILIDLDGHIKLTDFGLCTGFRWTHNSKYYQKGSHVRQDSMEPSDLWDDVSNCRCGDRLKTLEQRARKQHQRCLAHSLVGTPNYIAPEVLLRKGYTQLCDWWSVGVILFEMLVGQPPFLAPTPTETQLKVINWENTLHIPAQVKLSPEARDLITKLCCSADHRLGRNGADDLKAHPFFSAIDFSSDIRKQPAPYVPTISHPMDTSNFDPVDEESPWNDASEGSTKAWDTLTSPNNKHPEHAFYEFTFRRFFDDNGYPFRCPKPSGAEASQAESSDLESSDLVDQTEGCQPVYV
Briefly: RBC HotSpot kinase assay (33P-ATP, P81 filter-binding), LATS2. The settings on record: Table 28, biochemical kinase assay; read-out: LATS2 IC50. The method, then:
(§1) Biochemical kinase inhibitory data was obtained for various exemplary compounds prepared according to the above.
(§2) The reagents used are as follows: Base Reaction buffer; 20 mM Hepes (pH 7.5), 10 mM MgCl2, 1 mM EGTA, 0.01% Brij35, 0.02 mg/ml BSA, 0.1 mM Na3VO4, 2 mM DTT, […]. Required cofactors were added individually to each kinase reaction.
(§3) The reaction procedure was as follows: • 1) Substrates were prepared in freshly prepared Reaction Buffer. • 2) Any required cofactors were delivered to the substrate solution above. • 3) Kinase was delivered into the substrate solution and gently mixed. • 4) Compounds were delivered in 100% DMSO into the kinase reaction mixture by Acoustic technology (Echo550; nanoliter range), followed by incubation for 20 min at room temp. • 5) ^33P-ATP was delivered into the reaction mixture to initiate the reaction. • 6) The mixture was incubated for 2 hours at room temperature. • 7) Kinase activity was detected by P81 filter-binding method.
(§4) Using the above functional assay, the inhibitory activity of the compounds for LATS1/2 versus AKT was characterized. The assays were typically run in a 10-point curve, in singlet, to produce a titration curve from which an IC50 value was obtained.
(§5) The reagents used are as follows: Base Reaction buffer; 20 mM Hepes (pH 7.5), 10 mM MgCl2, 1 mM EGTA, 0.01% Brij35, 0.02 mg/ml BSA, 0.1 mM Na3VO4, 2 mM DTT, 1% DMSO. Required cofactors were added individually to each kinase reaction.
(§6) Biochemical kinase inhibitory data was obtained for various exemplary compounds prepared according to the above in accordance with the protocols described in Examples 4 and 8. All biological activities are IC50, in nM.

A further assay concerns the target AKT (Homo sapiens, UniProt P31749). The experiment in a line: RBC HotSpot kinase assay (33P-ATP, P81 filter-binding), AKT. The following applies: Table 28, biochemical kinase assay; read-out: AKT IC50. Here is the method:
as §1, §2, §3, §4, §5, §6

The target of another assay is T2, LATS1 (Homo sapiens, UniProt O95835).
T2 sequence (O95835 1-1130): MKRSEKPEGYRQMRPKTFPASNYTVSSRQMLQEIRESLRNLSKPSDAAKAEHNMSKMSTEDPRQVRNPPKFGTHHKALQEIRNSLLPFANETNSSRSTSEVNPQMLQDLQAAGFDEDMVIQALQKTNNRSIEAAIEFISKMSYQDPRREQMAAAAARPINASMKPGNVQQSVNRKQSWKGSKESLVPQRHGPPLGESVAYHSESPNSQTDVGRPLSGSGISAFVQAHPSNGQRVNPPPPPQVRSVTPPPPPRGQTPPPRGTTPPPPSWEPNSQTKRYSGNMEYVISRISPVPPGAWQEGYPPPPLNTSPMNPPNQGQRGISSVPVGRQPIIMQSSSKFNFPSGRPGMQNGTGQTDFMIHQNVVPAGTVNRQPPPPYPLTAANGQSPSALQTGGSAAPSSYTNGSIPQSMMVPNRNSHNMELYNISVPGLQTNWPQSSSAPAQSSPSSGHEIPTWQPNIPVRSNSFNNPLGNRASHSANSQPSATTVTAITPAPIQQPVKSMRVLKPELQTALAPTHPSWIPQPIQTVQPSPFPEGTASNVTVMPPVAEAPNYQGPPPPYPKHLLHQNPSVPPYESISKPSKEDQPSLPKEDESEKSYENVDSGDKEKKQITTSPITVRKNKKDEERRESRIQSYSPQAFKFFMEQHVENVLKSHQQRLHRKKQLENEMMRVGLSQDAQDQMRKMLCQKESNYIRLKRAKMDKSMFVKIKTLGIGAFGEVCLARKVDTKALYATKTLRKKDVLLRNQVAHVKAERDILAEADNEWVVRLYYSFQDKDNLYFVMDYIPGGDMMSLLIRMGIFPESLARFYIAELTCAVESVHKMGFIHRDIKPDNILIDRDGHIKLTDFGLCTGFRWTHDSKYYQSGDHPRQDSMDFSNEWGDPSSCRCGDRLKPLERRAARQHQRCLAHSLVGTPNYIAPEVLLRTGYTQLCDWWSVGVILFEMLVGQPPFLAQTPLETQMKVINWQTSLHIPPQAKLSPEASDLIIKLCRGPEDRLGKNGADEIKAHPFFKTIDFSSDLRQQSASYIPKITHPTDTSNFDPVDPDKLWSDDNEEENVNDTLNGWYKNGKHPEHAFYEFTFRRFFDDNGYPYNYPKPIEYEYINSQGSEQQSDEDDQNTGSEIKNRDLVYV
Briefly: RBC HotSpot kinase assay (33P-ATP, P81 filter-binding), LATS1. The following applies: Table 28, biochemical kinase assay; read-out: LATS1 IC50. The method, then: as §1, §2, §3, §4, §5, §6

AKT, sequence (P31749 whole entry): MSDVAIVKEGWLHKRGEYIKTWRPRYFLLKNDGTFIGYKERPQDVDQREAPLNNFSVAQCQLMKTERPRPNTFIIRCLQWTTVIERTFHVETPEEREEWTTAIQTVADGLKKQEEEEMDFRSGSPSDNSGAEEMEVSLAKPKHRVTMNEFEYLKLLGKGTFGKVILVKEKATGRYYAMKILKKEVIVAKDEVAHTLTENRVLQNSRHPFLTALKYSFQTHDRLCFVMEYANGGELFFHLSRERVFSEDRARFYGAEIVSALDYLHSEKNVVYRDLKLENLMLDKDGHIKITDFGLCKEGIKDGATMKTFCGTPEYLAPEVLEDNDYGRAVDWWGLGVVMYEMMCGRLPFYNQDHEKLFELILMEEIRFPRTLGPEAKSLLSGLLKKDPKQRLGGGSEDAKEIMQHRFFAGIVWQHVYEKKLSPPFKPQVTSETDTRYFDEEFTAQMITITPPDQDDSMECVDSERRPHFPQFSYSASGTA

The term IC50 denotes the concentration at which inhibition is half-maximal. Regarding `Cc1nc(-c2ccnc3[nH]cc(F)c23)ccc1[C@@]1(O)[C@H](C)CN(C2CCC2)C[C@@H]1C` [Compound 50, (3R,4s,5S)-1-cyclobutyl-4-(6-(3-fluoro-1H-pyrrolo[2,3-b]pyridin-4-yl)-2-methylpyridin-3-yl)-3,5-dimethylpiperidin-4-ol], the figures for the concentration for half-maximal inhibition (IC50) at LATS2, on AKT and at LATS1 were 24.7 nM, 906 nM and 6.1 nM, respectively.

`Cc1cc(-c2ccnc3[nH]cc(F)c23)ncc1[C@@]1(O)[C@H](C)CN(Cc2ccncc2)C[C@@H]1C` [Compound 52, (3R,4s,5S)-4-(6-(3-fluoro-1H-pyrrolo[2,3-b]pyridin-4-yl)-4-methylpyridin-3-yl)-3,5-dimethyl-1-(pyridin-4-ylmethyl)piperidin-4-ol]: the IC50 is 5080 nM at LATS2, > 10000 nM at AKT and 2210 nM at LATS1.

Take `C[C@@H]1CN(C(CF)CF)C[C@H](C)C1(O)c1ccc(-c2ccnc3[nH]cc(F)c23)cc1Cl` (stereo partly drawn) [Compound 53, (3S,5R)-4-(2-chloro-4-(3-fluoro-1H-pyrrolo[2,3-b]pyridin-4-yl)phenyl)-1-(1,3-difluoropropan-2-yl)-3,5-dimethylpiperidin-4-ol]: the IC50 came to 3.6 nM on LATS2, 374 nM on AKT and 3 nM on LATS1.

For the compound `Cc1cc(-c2ccnc3[nH]cc(F)c23)ncc1C1(O)[C@H](C)CN(C2CCS(=O)(=O)CC2)C[C@@H]1C` (stereo partly drawn) [Compound 56, 4-((3R,5S)-4-(6-(3-fluoro-1H-pyrrolo[2,3-b]pyridin-4-yl)-4-methylpyridin-3-yl)-4-hydroxy-3,5-dimethylpiperidin-1-yl)tetrahydro-2H-thiopyran 1,1-dioxide], the figures for the IC50 on LATS2, on AKT and at LATS1 were 4250 nM, > 10000 nM and 2080 nM, respectively.

On to `C[C@@H]1CN(C(=O)[C@H]2CCCN2)C[C@H](C)[C@@]1(O)c1c(F)cc(-c2ccnc3[nH]cc(F)c23)cc1F` [Compound 59, 4-(4-((3S,4R,5R)-1-(L-prolyl)-4-hydroxy-3,5-dimethylpiperidin-4-yl)-3,5-difluorophenyl)-3-fluoro-1H-pyrrolo[2,3-b]pyridine], for which the IC50 on LATS2 is 10.3 nM; at AKT, 1470 nM; at LATS1, 21.6 nM.

For the compound `Cc1cc(-c2ccnc3[nH]cc(F)c23)cc(F)c1[C@@]1(O)[C@H](C)CN(C(=O)C2(N)CC(F)(F)C2)C[C@@H]1C` [Compound 62, (1-amino-3,3-difluorocyclobutyl) ((3S,4s,5R)-4-(2-fluoro-4-(3-fluoro-1H-pyrrolo[2,3-b]pyridin-4-yl)-6-methylphenyl)-4-hydroxy-3,5-dimethylpiperidin-1-yl)methanone], the IC50 at LATS2 came to 4.3 nM; on AKT, 5880 nM; at LATS1, 19.7 nM.

Turning to `Cc1cc(-c2ccnc3[nH]cc(F)c23)cc(F)c1[C@@]1(O)[C@H](C)CN(C(=O)[C@@H]2CCCN2)C[C@@H]1C` [Compound 63, 4-(4-((3S,4R,5R)-1-(L-prolyl)-4-hydroxy-3,5-dimethylpiperidin-4-yl)-3-fluoro-5-methylphenyl)-3-fluoro-1H-pyrrolo[2,3-b]pyridine], the IC50 stood at 3.4 nM at LATS2, 677 nM at AKT and 8.5 nM at LATS1.

With `Cc1cc(-c2ccnc3[nH]cc(F)c23)cc(F)c1[C@@]1(O)[C@H](C)CN(C(=O)[C@@H]2CC(F)(F)CN2)C[C@@H]1C` [Compound 64, ((S)-4,4-difluoropyrrolidin-2-yl)((3S,4R,5R)-4-(2-fluoro-4-(3-fluoro-1H-pyrrolo[2,3-b]pyridin-4-yl)-6-methylphenyl)-4-hydroxy-3,5-dimethylpiperidin-1-yl)methanone], the IC50 at LATS2 came out at 3.6 nM; on AKT, 3140 nM; at LATS1, 6.7 nM.

As to `Cc1cc(-c2ccnc3[nH]cc(F)c23)cc(F)c1[C@@]1(O)[C@H](C)CN(C(=O)[C@@H]2C[C@H](F)CN2)C[C@@H]1C` [Compound 65, ((3S,4R,5R)-4-(2-fluoro-4-(3-fluoro-1H-pyrrolo[2,3-b]pyridin-4-yl)-6-methylphenyl)-4-hydroxy-3,5-dimethylpiperidin-1-yl)((2S,4S)-4-fluoropyrrolidin-2-yl)methanone], the values for the IC50 at LATS2, at AKT and on LATS1 were 3.2 nM, 1180 nM and 8.7 nM, respectively.

As to `Cc1cc(-c2ccnc3[nH]cc(F)c23)cc(F)c1[C@@]1(O)[C@H](C)CN(C(=O)[C@@H]2C[C@@H](F)CN2)C[C@@H]1C` [Compound 66, ((3S,4R,5R)-4-(2-fluoro-4-(3-fluoro-1H-pyrrolo[2,3-b]pyridin-4-yl)-6-methylphenyl)-4-hydroxy-3,5-dimethylpiperidin-1-yl)((2S,4R)-4-fluoropyrrolidin-2-yl)methanone], the IC50 on LATS2 worked out at 3 nM; at AKT, 673 nM; at LATS1, 13 nM.

In the case of `CNCC(=O)N1C[C@@H](C)[C@](O)(c2c(C)cc(-c3ccnc4[nH]cc(F)c34)cc2F)[C@@H](C)C1` [Compound 67, 1-((3S,4s,5R)-4-(2-fluoro-4-(3-fluoro-1H-pyrrolo[2,3-b]pyridin-4-yl)-6-methylphenyl)-4-hydroxy-3,5-dimethylpiperidin-1-yl)-2-(methylamino) ethan-1-one], the figures for the IC50 at LATS2, on AKT and on LATS1 were 2.8 nM, 577 nM and 8.7 nM, respectively.
